In general, IC50 refers to the concentration that gives 50% inhibition. Read a low IC50 as higher potency.

Drawing on ChEMBL document CHEMBL1129579, “Carbohydrates in an acidic multivalent assembly: nanomolar P-selectin inhibitors” (J Med Chem, 1996), this text covers IC50 for 2 compounds.

In this assay the target is T1, P-selectin (Homo sapiens, UniProt P16109).
T1 sequence (P16109 whole entry): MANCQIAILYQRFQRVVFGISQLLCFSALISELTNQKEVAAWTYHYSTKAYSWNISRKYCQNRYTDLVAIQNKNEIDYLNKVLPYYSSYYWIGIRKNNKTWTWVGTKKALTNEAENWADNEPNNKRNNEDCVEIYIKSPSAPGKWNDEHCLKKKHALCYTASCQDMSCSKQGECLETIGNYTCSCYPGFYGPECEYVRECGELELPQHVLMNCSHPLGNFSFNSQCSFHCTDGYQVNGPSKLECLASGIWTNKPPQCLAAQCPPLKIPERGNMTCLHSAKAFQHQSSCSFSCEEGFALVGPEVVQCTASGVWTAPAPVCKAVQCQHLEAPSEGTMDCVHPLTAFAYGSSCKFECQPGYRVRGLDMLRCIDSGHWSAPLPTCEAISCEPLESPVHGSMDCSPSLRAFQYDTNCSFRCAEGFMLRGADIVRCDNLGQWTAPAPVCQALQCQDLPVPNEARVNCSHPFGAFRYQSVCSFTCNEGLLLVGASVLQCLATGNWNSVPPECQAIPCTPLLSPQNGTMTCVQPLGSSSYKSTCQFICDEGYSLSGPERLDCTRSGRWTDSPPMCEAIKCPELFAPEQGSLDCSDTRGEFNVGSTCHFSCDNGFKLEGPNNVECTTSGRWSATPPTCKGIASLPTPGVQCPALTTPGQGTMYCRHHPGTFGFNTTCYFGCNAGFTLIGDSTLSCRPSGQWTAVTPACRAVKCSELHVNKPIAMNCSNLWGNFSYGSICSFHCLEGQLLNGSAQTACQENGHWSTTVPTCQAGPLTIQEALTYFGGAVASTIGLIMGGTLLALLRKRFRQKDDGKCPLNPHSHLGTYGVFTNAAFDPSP
The assay is described as follows: Inhibitory activity against Selectin P IgG chimera binding to HL-60 cells, by binding to Selectin P. The assay is classed as cell-based.

In turn, `CCCCCCCCCCCCC#CC#CCCCCCCCCC(=O)NCCSCCCN(C(C)=O)[C@@H]1O[C@@H](CO)[C@@H](O[C@@H]2O[C@@H](CO)[C@H](O)[C@H](OCC(=O)O)[C@@H]2O)[C@H](O[C@@H]2O[C@@H](C)[C@@H](O)[C@H](O)[C@@H]2O)[C@@H]1O` had an IC50 of 2 nM.
In turn, `CCCCCCCCCCCCC#CC#CCCCCCCCCC(=O)NCCO` registered an IC50 of 500 nM.
